We go through one compound from patent publication US8519124B2, “Chemokine receptor antagonists and use thereof” (Ono Pharmaceutical Co., Ltd., priority 2005, dated 2013).

Molecules are shown by their SMILES.

Data set [1] can be described thus: Measurement of maximum plasma level (Cmax) and bioavailability (BA). In kind it is in vivo. Conditions: male, Crl:CD(SD), po; rat plasma; orally administered solution 10 mg/kg, fasting. The procedure:
Measurement of Maximum Plasma Level (CMax) and Bioavailability (BA)
A test compound is weighed, dissolved in Solutol (trade name; manufactured by BASF-TAKEDA Vitamins Ltd.)/propylene glycol=7/3 which is heated to 60° C. and adjusted to 20 mg/mL; thereafter, the test compound is diluted by 10 times with distilled water for injection, and further diluted by 2 times with saline solution, by which intravenously administered solution is eventually made. The test compound is weighed, dissolved in Solutol (trade name; manufactured by BASF-TAKEDA Vitamins Ltd.)/propylene glycol=7/3 which is heated to 60° C., and adjusted to 20 mg/mL; thereafter, the test compound is diluted by 10 times with distilled water for injection, by which orally administered solution is eventually made. Intravenous administration is performed by rapid single administration (n=3) of intravenously administered solution (1 mg/kg) from the tail vein of Crl:CD(SD) Rat (male, manufactured by CHARLES RIVER LABORATORIES JAPAN, INC). Oral administration is performed by forced administration (n=3) of orally administered solution (10 mg/kg) into the stomach of Crl:CD(SD) Rat (male, manufactured by CHARLES RIVER LABORATORIES JAPAN, INC.) using a sonde. The administration is conducted under fasting conditions; water is freely ingested. A 0.35 mL blood sample is taken from cervical vein by using Heparinized Syringe at 15 minutes, 30 minutes, 1 hour, 2 hours, 4 hours, 6 hours, 8 hours, and 24 hours after administration. The obtained blood is stored in ice, and after centrifugation at 12,000 rpm for 5 minutes, blood plasma is fractionated. The blood plasma is preserved at a temperature of −80° C. The sample of blood plasma preserved at a temperature of −80° C. is dissolved; inner standard solution (100 μL) and acetonitrile (2 mL) are added to the blood plasma sample 100 μL and stirred; and the sample is centrifuged at 2,500 rpm for 10 minutes. After the supernatant is evaporated to dryness by means of a centrifugal concentrator, 67% dimethyl sulfoxide solution (150 μL) is added to the residue and dissolves them again; and 20 μL of the solution is analyzed by means of LC/MS/MS.
The analysis by means of LC/MS/MS should be performed, for example, under the following conditions:
Measurement device: Waters 2795 (manufactured by Waters Corporation)
Analytical column: Unison UK-C18, 3.0 μm particle size, 2.0 mm×30 mm (manufactured by Imtakt Corporation)
Analytical column temperature: Room temperature
Moving bed: 5 mM IPC-PFAA-7 solution/acetonitrile (9/1→1/9)
Measurement device: Quatro micro API (manufactured by Micromass Communications Inc.)
Method for ionization: ES+
Capillary electric potential: 3.30 kV
Source temperature: 120° C.
Desolvation temperature: 350° C.
The monitor ion which was suitable for each sample was selected.
The concentration transition in the rat blood plasma of the test compound is analyzed by means of non-compartment analysis method by using WinNonlin 4.0.1 (manufactured by Pharsight Corporation) to calculate the maximum blood concentration Cmax and the area under the blood concentration curve AUC.
BA is calculated by means of the following formula: BA(%)={(AUCp.o./Dosep.o.)/(AUCi.v./Dosei.v.)}×100
AUCp.o.: AUC in oral administration
Dosep.o.: Amount of the drug orally administered
AUCi.v.: AUC in intravenous administration
Dosei.v.: Amount of the drug intravenously administered

Data set [2] deals with DOPA liposome (artificial lipid membrane). Description: Artificial lipid membrane binding by using Biacore S51 system. Conditions: 50 μM compound. The procedure: Artificial Lipid Membrane Binding Account by Using Biacore (Registered Trademark) S51 System
10 mM of 1,2-Dioleoyl-sn-Glycero-3-Phosphate, Monosodium Salt (hereinafter abbreviated as DOPA) chloroform solution was evaporated to dryness by means of an aspirator, and 0.6 mL of PBS/5% dimethyl sulfoxide (hereinafter abbreviated as DMSO) was added. The chloroform solution was fully suspended by means of a vortex mixer, and the freezing and thawing were repeated for 5 times. Liposome was created by means of a liposome adjustment instrument (manufactured by Avestin Inc.) and 2 syringes, and was diluted to 0.5 mM with PBS/5% DMSO just prior to immobilization.
(ii) Measurement Compound Adjustment
The 38 μL of 1×PBS is added to 2 μL DMSO solution (10 mM), and further the 360 μL 1×PBS/5% DMSO was added; the 50 μM of final concentration in the 1×PBS/5% DMSO was adjusted and measured.
All of the following analysis used Biacore® S51 system; the measurement conditions were set by Biacore S51 Control Soft.
The measurement temperature was set to be 37° C., and the 1×PBS/5% DMSO (pH 7.4 or PH 6.0) was used as a buffer. Series S Sensor Chip L1 was used for a sensor chip. The DOPA was immobilized in one of the measuring spots on the sensor surface, and the central spot was used as a reference.
Immobilization of liposome was conducted at a flow rate of 10 μL/min for about 3 minutes; then the compound was added at a flow rate of 30 μL/min and the interaction was measured. The measurement conditions are as follows:
Assay buffer: PBS/5% DMSO (pH 7.4 or PH 6.0)
Measurement temperature: 37° C.
Sensor chip: Series S Sensor Chip L1
Flow rate: 10 μL/min at the time of the liposome immobilization; 30 μL/min at the time of the measurement of interaction with the compound
Regeneration: 20 mM CHAPS (3-[(3-Cholamidopropyl)dimethylammonio]-1-propanesulfonate), Isopropanol/50 mM sodium hydroxide solution=40/60 (volume ratio) mixture (60 seconds)
The data processing was conducted by means of method of Abdiche et al. (Analytical biochemistry, 328, 233-243 (2004)) by using Biacore S51 Evaluation Soft.
Regarding the value of binding response (RU) in which the value of reference was subtracted, it was divided by a sample molecular weight after minute error of the DMSO concentration included in the sample solution was corrected. In addition, the value obtained here was divided by an amount of capture at the time of the cycle because the value obtained here was proportional to the amount of capture of the liposome; further, the value was multiplied by a million to be considered as a corrected value (Corrected value=1000000)×RU (test compound)/molecular quantity (test compound) RU (liposome)).
Propranolol, Amiodarone, Desipramine, Imipramine and Procaine were added as the controls, and it was recognized that the variation of the binding response was within ca. 10 to 15%.
The compound, in which a value of the binding response after the correction was equal to or more than 150, was determined as positive.
(In general: In SPR one partner is held on a chip, and binding of the other changes the refractive index at the surface.)

On to `CC(C)(C)CN1CCC2(CCN(Cc3ccc(C(=O)N(Cc4ncc[nH]4)Cc4ncc[nH]4)cc3)CC2)C1` [Example 8 (114), 4-{[2-(2,2-dimethylpropyl)-2,8-diazaspiro[4.5]dec-8-yl]methyl}-N,N-bis(1H-imidazol-2-ylmethyl)benzamide], for which, in data set [1], the peak level (Cmax) was 46 ng/mL. Besides, in data set [2] (DOPA liposome), the “Judgement (phospholipidosis inductive effect)” value is “negative”. In addition, the “Corrected value of binding response (RU)” value in data set [2] (DOPA liposome on Sensor Chip L1, 37° C., PBS/5% DMSO (pH 7.4 or PH 6.0)) was found to be 80.7 RU.

The Cmax is the peak of the concentration-time curve.
